According to patent US20140348756A1, “WATER-FREE FORMULATIONS HAVING A COOLING EFFECT” (Henkel AG & Co. KGaA, priority 2011, published 2014):

System: test persons
Test: Measuring the cooling effect: antiperspirant aerosols evaluated by test persons
Type: in vivo
Source text: Measuring the Cooling Effect
Inventive antiperspirant aerosols were produced with various cooling agents and evaluated by test persons. It was shown that the cooling agent L-menthol is employable only in very small quantities, namely in quantities below 0.1 wt %, relative to the weight of the gasified aerosol formulation, corresponding to a weight fraction of 0.66 wt %, relative to the weight of the formulation, without taking into account the propellant. […] The skin compatibility in the armpit area was also worsened by menthol above 0.1 wt %, relative to the weight of the gasified aerosol formulation, corresponding to a weight fraction of 0.66 wt %, relative to the weight of the formulation, without taking into account the propellant. […] The proportion of nonresponders, 47%, was too high, however, and could not be reduced by increasing the concentration of L-menthol without the appearance of the cited inacceptable side effects.
The formulation B including 1.0 wt % of an extract of Rumex acetosa leaf in solution/suspension in isopropyl myristate with a dry substance weight of 0.5 wt %, relative to the weight of the raw material itself, was also found to be cooling by 57% of the test persons. […] The amount of dry substance of the oily Rumex acetosa leaf extract here amounted to 0.033 wt %, relative to the weight of the inventive composition without propellant. […]

SMILES: CC(C)[C@@H]1CC[C@@H](C)C[C@H]1O [L-menthol]
- employable quantity of the cooling agent (relative to the weight of the formulation, without taking into account the propellant): < 0.66 wt %
- employable quantity of the cooling agent (relative to the weight of the gasified aerosol formulation): below 0.1 wt %
